This is an account of results in publication PMC7587356, “High-Throughput Screening for Inhibitors of the SARS-CoV-2 Protease Using a FRET-Biosensor” (Molecules, 2020).

Where two headings read alike, the source gives them in different places.

For the assay, the target named is SARS-CoV-2 3CLpro (Severe acute respiratory syndrome coronavirus 2, UniProt P0DTD1). Nature of the assay: biochemical. Particulars: for inhibition at 5 µM: 4 h; for mean (LOPAC screen with protease) / Replicate_1 (LOPAC screen with protease) / Replicate_2 (LOPAC screen with protease): primary screen at 5 µM. Also noted: Replicate_1 / Replicate_2 / mean / mean (LOPAC_screen_w_protease): unit not given here. The format is biochemical.

Where [1] appears, read: LOPAC1280 primary screen with protease, 5 µM compound, mean of two replicates.
[2] abbreviates: LOPAC1280 primary screen with protease, 5 µM compound, replicate 1.
[3] abbreviates: LOPAC1280 primary screen with protease, 5 µM compound, replicate 2.
Where [4] appears, read: sheet LOPAC_screen_w_protease, primary screen with protease, mean of two replicates.
[5] abbreviates: sheet LOPAC_screen_w_protease, primary screen with protease, replicate 1.
[6] abbreviates: sheet LOPAC_screen_w_protease, primary screen with protease, replicate 2.
The mark [7] stands for this setting: sheet LOPAC_screen_w_protease, mean of two replicates.
Where [8] appears, read: sheet LOPAC_screen_w_protease, replicate 1.
Where [9] appears, read: sheet LOPAC_screen_w_protease, replicate 2.
The mark [10] stands for this setting: LOPAC1280 primary screen with protease, 5 µM compound, mean of the two replicates.
[11] abbreviates: sheet LOPAC_screen_w_protease, LOPAC1280 primary screen with protease, 5 µM compound, mean of the two replicates.
Where [12] appears, read: sheet LOPAC_screen_w_protease, LOPAC1280 primary screen with protease, 5 µM compound, replicate 1.
Where [13] appears, read: sheet LOPAC_screen_w_protease, LOPAC1280 primary screen with protease, 5 µM compound, replicate 2.
Setting [14] is: sheet LOPAC_screen_w_protease, primary screen of LOPAC1280 at 5 µM with protease, mean of the two replicates, read-out: mean.
Setting [15] is: sheet LOPAC_screen_w_protease, primary screen of LOPAC1280 at 5 µM with protease, replicate 1, read-out: Replicate_1.
The mark [16] stands for this setting: sheet LOPAC_screen_w_protease, primary screen of LOPAC1280 at 5 µM with protease, replicate 2, read-out: Replicate_2.
The mark [17] stands for this setting: sheet LOPAC_screen_w_protease, LOPAC1280 at 5 µM, mean of two replicates.
[18] abbreviates: sheet LOPAC_screen_w_protease, LOPAC1280 at 5 µM, replicate 1.
Setting [19] is: sheet LOPAC_screen_w_protease, LOPAC1280 at 5 µM, replicate 2.
Setting [20] is: sheet LOPAC_screen_w_protease, primary screen of LOPAC1280 at 5 µM with protease, mean of the two replicates.
Where [21] appears, read: sheet LOPAC_screen_w_protease, primary screen of LOPAC1280 at 5 µM with protease, replicate 1.
Setting [22] is: sheet LOPAC_screen_w_protease, primary screen of LOPAC1280 at 5 µM with protease, replicate 2.

For `NCC(=O)NCCC(c1ccccc1)c1ccccc1` [N-(3,3-Diphenylpropyl)glycinamide], under setting [1], the “mean (LOPAC_screen_w_protease)” value is 1.396. For the same molecule, the “Replicate_1 (LOPAC_screen_w_protease)” value under setting [2] was determined as 1.194. Besides, the “Replicate_2 (LOPAC_screen_w_protease)” value under setting [3] amounted to 1.598.

Molecule `Nc1ccc(N2C(=O)c3ccccc3C2=O)c(Cl)c1` [N-(4-Amino-2-chlorophenyl)phthalimide] yielded a mean under setting [4] of 2.38. Under setting [5], this molecule yielded a Replicate_1 of 2.0208. The molecule also returned a Replicate_2 under setting [6] of 2.74.

For the molecule `CC(=O)NCCc1c[nH]c2ccc(O)cc12` [N-Acetyl-5-hydroxytryptamine], the “mean (LOPAC_screen_w_protease)” value under setting [1] stood at 1.513. Also, the “Replicate_1 (LOPAC_screen_w_protease)” value under setting [2] worked out at 1.947. Also, under setting [3], the “Replicate_2 (LOPAC_screen_w_protease)” value came out at 1.078.

In the case of `CC(=O)N[C@@H](CS)C(=O)O` [N-Acetyl-L-Cysteine], the inhibition at 5 µM (read-out: Replicate_1) came out at 0.481%, the inhibition at 5 µM (read-out: Replicate_2) was 0.723% and the inhibition at 5 µM (read-out: mean) stood at 0.602%.

With `CC(=O)NCCc1ccc(O)c(O)c1.O` [N-Acetyldopamine monohydrate], the “mean (LOPAC screen with protease)” value under setting [7] turned out to be 81.0563. The “Replicate_1 (LOPAC screen with protease)” value under setting [8] was found to be 83.9163. The “Replicate_2 (LOPAC screen with protease)” value under setting [9] was found to be 78.1962.

As for `CCN(CC)CCNC(=O)c1ccc(NC(C)=O)cc1.Cl` [N-Acetylprocainamide hydrochloride], the “mean (LOPAC_screen_w_protease)” value under setting [1] is on record as 1.374. Besides, under setting [2], the “Replicate_1 (LOPAC_screen_w_protease)” value was 0.6051. In addition, under setting [3], the “Replicate_2 (LOPAC_screen_w_protease)” value came out at 2.1421.

Turning to `CC(=O)NCCc1c[nH]c2ccccc12` [N-Acetyltryptamine], the inhibition at 5 µM (sheet LOPAC_screen_w_protease, LOPAC1280 primary screen at 5 µM, with protease, mean of the two replicates, read-out: mean) was found to be 0.808%; the inhibition at 5 µM (sheet LOPAC_screen_w_protease, LOPAC1280 primary screen at 5 µM, with protease, replicate 1, read-out: Replicate_1) came to 1.07%; the inhibition at 5 µM (sheet LOPAC_screen_w_protease, LOPAC1280 primary screen at 5 µM, with protease, replicate 2, read-out: Replicate_2) was determined as 0.543%.

With `CC(=O)NBr` [N-Bromoacetamide], the “mean (LOPAC_screen_w_protease)” value under setting [10] is recorded as 1.955. Also, under setting [2], the “Replicate_1 (LOPAC_screen_w_protease)” value amounted to 1.503. Besides, the “Replicate_2 (LOPAC_screen_w_protease)” value under setting [3] turned out to be 2.407.

Consider `CCN1C(=O)C=CC1=O` [N-Ethylmaleimide], for which the inhibition at 5 µM is 5.02% (LOPAC1280 primary screen with protease, 5 µM compound, replicate 1, read-out: Replicate_1 (LOPAC_screen_w_protease)) and -1.33% (LOPAC1280 primary screen with protease, 5 µM compound, replicate 2, read-out: Replicate_2 (LOPAC_screen_w_protease)). Besides, the “mean (LOPAC_screen_w_protease)” value under setting [10] stood at 1.849.

Consider `CN1C[C@H](O)[C@@H](O)[C@H](O)[C@H]1CO` [N-Methyl-1-deoxynojirimycin], for which the mean under setting [11] amounted to 4.2727. In addition, under setting [12], the Replicate_1 worked out at 3.9484. The molecule further came in with a Replicate_2 under setting [13] of 4.597.

Consider `CN[C@H](CC(=O)O)C(=O)O` [N-Methyl-D-aspartic acid], for which the inhibition at 5 µM was determined as 3.42% under setting [14], 4.04% under setting [15] and 2.81% under setting [16].

Turning to `CNC(=O)c1cc2c(cn1)[nH]c1ccccc12` [N-Methyl-beta-carboline-3-carboxamide], the mean under setting [17] stood at 1.084. Under setting [18], this molecule registered a Replicate_1 of 1.698. In addition, under setting [19], the Replicate_2 is 0.4701.

`CNCCc1ccc(O)c(O)c1.Cl` [N-Methyldopamine hydrochloride]: the mean under setting [17] worked out at 1.304. The molecule further returned a Replicate_1 under setting [18] of 0.8088. Under setting [19], this molecule returned a Replicate_2 of 1.799.

For `CCCCCCCC/C=C\CCCCCCCC(=O)NCCc1ccc(O)c(O)c1` [N-Oleoyldopamine], the “mean (LOPAC_screen_w_protease)” value under setting [10] worked out at 2.025. Also, under setting [2], the “Replicate_1 (LOPAC_screen_w_protease)” value was 0.1379. The “Replicate_2 (LOPAC_screen_w_protease)” value under setting [3] was determined as 3.912.

For `CCCCCCCC/C=C\CCCCCCCC(=O)NCCO` [N-Oleoylethanolamine], under setting [20], the mean is listed as 3.1732. This molecule showed a Replicate_1 under setting [21] of 4.947. Moreover, under setting [22], the Replicate_2 was 1.4.

Take `O=C(O)c1ccccc1Nc1ccccc1` [N-Phenylanthranilic acid]: the inhibition at 5 µM is, setting by setting: (sheet LOPAC_screen_w_protease, primary screen with protease, 5 µM, mean of two replicates, read-out: mean) 0.157%; (sheet LOPAC_screen_w_protease, primary screen with protease, 5 µM, replicate 1, read-out: Replicate_1) 0.635%; (sheet LOPAC_screen_w_protease, primary screen with protease, 5 µM, replicate 2, read-out: Replicate_2) -0.322%.

Regarding `O=C(O)CCC(=O)N1CCC[C@H]1C(=O)O` [N-Succinyl-L-proline], the mean (sheet LOPAC_screen_w_protease, LOPAC1280 primary screen at 5 µM, with protease, mean of two replicates) was -1.024. For the setting “sheet LOPAC_screen_w_protease, LOPAC1280 primary screen at 5 µM, with protease, replicate 1”, this molecule had a Replicate_1 of 1.826. For the same molecule, the Replicate_2 (sheet LOPAC_screen_w_protease, LOPAC1280 primary screen at 5 µM, with protease, replicate 2) is -3.873.

Consider `CCCCC/C=C\C/C=C\C/C=C\C/C=C\CCCC(=O)NCC(=O)O` [N-arachidonylglycine], for which the mean (sheet LOPAC_screen_w_protease, primary screen with protease, 5 µM, mean of two replicates) worked out at 0.3785. The Replicate_1 (sheet LOPAC_screen_w_protease, primary screen with protease, 5 µM, replicate 1) was 1.728. Besides, the Replicate_2 (sheet LOPAC_screen_w_protease, primary screen with protease, 5 µM, replicate 2) is given as -0.9708.

For `NC(=O)C1=CN([C@@H]2O[C@H](COP(=O)([O-])OP(=O)([O-])OC[C@H]3O[C@@H](n4cnc5c(N)ncnc54)[C@H](OP(=O)([O-])[O-])[C@@H]3O)[C@@H](O)[C@H]2O)C=CC1.[Na+].[Na+].[Na+].[Na+]` [NADPH tetrasodium], the mean under setting [17] was 1.2074. Further, the Replicate_1 under setting [18] worked out at 1.812. Under setting [19], this molecule registered a Replicate_2 of 0.6031.

Turning to `Br.COc1ccccc1N1CCN(CCCCN2C(=O)c3ccccc3C2=O)CC1` [NAN-190 hydrobromide], the “mean (LOPAC_screen_w_protease)” value under setting [10] came out at 1.999. The “Replicate_1 (LOPAC_screen_w_protease)” value under setting [2] was 4.031. The “Replicate_2 (LOPAC_screen_w_protease)” value under setting [3] is recorded as -0.03323.

Under setting [4], `CCCN(CC1CC1)c1nc(C)nc(Nc2c(Cl)cc(Cl)cc2Cl)c1Cl` [NBI 27914] returned a mean of 2.264. This molecule displayed a Replicate_1 under setting [5] of 4.203. Under setting [6], this molecule displayed a Replicate_2 of 0.3255.

As for `NS(=O)(=O)c1cccc2c1c([N+](=O)[O-])cc1nc([O-])c([O-])nc12.[Na+].[Na+]` [NBQX disodium], the “mean (LOPAC screen with protease)” value under setting [7] is 8.586. The “Replicate_1 (LOPAC screen with protease)” value under setting [8] was 5.7201. Also, the “Replicate_2 (LOPAC screen with protease)” value under setting [9] was 11.4514.

Regarding `O=C(O)/C=C1\CCCc2ccccc2C1O` (stereo not drawn) [NCS-382], the mean under setting [11] is 5.8931. Besides, under setting [12], the Replicate_1 came to 5.187. In addition, the Replicate_2 under setting [13] was 6.599.

For `O=C(Nc1cc(C(=O)Nc2ccc(S(=O)(=O)[O-])cc2S(=O)(=O)[O-])cc(C(=O)Nc2ccc(S(=O)(=O)[O-])cc2S(=O)(=O)[O-])c1)Nc1cc(C(=O)Nc2ccc(S(=O)(=O)[O-])cc2S(=O)(=O)[O-])cc(C(=O)Nc2ccc(S(=O)(=O)[O-])cc2S(=O)(=O)[O-])c1.[Na+].[Na+].[Na+].[Na+].[Na+].[Na+].[Na+].[Na+]` [NF449 octasodium salt], the mean under setting [20] is reported as 4.044. The molecule also gave a Replicate_1 under setting [21] of 4.589. For the same molecule, the Replicate_2 under setting [22] is given as 3.499.

Take `O=C(Nc1cccc(C(=O)Nc2ccc(S(=O)(=O)O)c3cc(S(=O)(=O)O)cc(S(=O)(=O)O)c23)c1)Nc1cccc(C(=O)Nc2ccc(S(=O)(=O)O)c3cc(S(=O)(=O)O)cc(S(=O)(=O)O)c23)c1` [NF 023, reference compound]: the mean under setting [11] is 6.11. Under setting [12], the Replicate_1 stood at 5.845. This molecule also gave a Replicate_2 under setting [13] of 6.375.

Under setting [4], `CC(=O)O.NC(=NCCC[C@H](N)C(=O)O)NO` [NG-Hydroxy-L-arginine acetate] yielded a mean of 2.232. Besides, the Replicate_1 under setting [5] amounted to 2.489. The Replicate_2 under setting [6] is on record as 1.975.

On to `N=C(NCCC[C@H](N)C(=O)O)N[N+](=O)[O-]` [NG-Nitro-L-arginine], for which the inhibition at 5 µM under setting [14] turned out to be 3.68%, the inhibition at 5 µM under setting [15] was 2.33% and the inhibition at 5 µM under setting [16] stood at 5.04%.

As to `Cl.O=C(O)C1=CCCN(CCON=C(c2ccccc2)c2ccccc2)C1` [NO-711 hydrochloride], the Replicate_1 worked out at 1.057, the Replicate_2 is -0.5134 and the mean worked out at 0.272.

Under setting [20], `CCCCN1CCC(n2c(=O)[nH]c3ccccc32)CC1.O=C(O)C(=O)O` [NS 521 oxalate] showed a mean of 3.504. This molecule came in with a Replicate_1 under setting [21] of 2.6467. Moreover, under setting [22], the Replicate_2 is on record as 4.361.

In the case of `O=c1onc2n1-c1cc(Br)ccc1OC2` [NS 2028], the Replicate_1 was 5.339, the Replicate_2 was determined as 3.612 and the mean was 4.476.
